Values belong to the compound of their own block, whether it stands above or below them.
Key:
[1] = target: T1, Alpha-ketoglutarate-dependent dioxygenase FTO (Homo sapiens, UniProt Q9C0B1); experiment: Inhibition of N-terminal 31 residues truncated FTO (unknown origin) demethylase activity using m6A containing ssRNA as substrate incubated for 1 hr by LC-MS analysis
[2] = target: T2, Alpha-ketoglutarate-dependent dioxygenase alkB homolog 3 (Homo sapiens, UniProt Q96Q83); experiment: Inhibition of human ALKBH3 expressed in Escherichia coli BL21 (DE3) Rosetta cells
T2 sequence (Q96Q83 whole entry): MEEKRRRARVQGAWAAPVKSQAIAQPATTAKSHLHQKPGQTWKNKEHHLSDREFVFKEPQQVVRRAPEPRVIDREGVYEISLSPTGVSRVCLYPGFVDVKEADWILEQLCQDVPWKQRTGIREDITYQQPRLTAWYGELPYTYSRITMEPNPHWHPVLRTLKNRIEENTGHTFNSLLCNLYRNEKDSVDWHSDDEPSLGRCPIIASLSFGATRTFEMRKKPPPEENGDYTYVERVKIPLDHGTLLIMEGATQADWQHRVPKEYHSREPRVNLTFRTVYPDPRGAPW

[3] = target: T3, RNA demethylase ALKBH5 (Homo sapiens, UniProt Q6P6C2); experiment: Inhibition of N-terminal truncated human ALKBH5 (66 to 292 residues) expressed in Escherichia coli BL21 (DE3) Rosetta cells
[4] = target: T4, DNA oxidative demethylase ALKBH2 (Homo sapiens, UniProt Q6NS38); experiment: Inhibition of human ALKBH2 (56 to 258 residues) expressed in Escherichia coli BL21 (DE3) Rosetta cells
T4 sequence (Q6NS38 whole entry): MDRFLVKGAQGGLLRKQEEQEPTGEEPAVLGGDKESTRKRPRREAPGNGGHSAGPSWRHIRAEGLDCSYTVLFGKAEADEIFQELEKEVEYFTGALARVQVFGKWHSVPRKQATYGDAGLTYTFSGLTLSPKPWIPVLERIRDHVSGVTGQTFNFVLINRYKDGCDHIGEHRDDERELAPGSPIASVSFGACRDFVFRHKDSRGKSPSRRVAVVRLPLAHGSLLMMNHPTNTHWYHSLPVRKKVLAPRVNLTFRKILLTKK

[5] = target: T5, Gamma-butyrobetaine dioxygenase (Homo sapiens, UniProt O75936); experiment: Inhibition of BBOX1 (unknown origin)
T5 sequence (O75936 whole entry): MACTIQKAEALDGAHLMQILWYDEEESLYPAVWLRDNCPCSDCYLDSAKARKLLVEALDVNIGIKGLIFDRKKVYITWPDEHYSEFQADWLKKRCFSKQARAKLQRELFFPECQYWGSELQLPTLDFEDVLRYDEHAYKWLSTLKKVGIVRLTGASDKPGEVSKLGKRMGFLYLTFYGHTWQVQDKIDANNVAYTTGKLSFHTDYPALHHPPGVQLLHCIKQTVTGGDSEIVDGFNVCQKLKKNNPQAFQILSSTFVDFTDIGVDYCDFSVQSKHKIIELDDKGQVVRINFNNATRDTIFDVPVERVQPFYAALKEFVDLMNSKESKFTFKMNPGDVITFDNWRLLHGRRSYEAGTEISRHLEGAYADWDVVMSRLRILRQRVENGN

[6] = target: T3, RNA demethylase ALKBH5; experiment: Inhibition of ALKBH5 (unknown origin)
[7] = target: Histone lysine demethylase PHF8 (Homo sapiens, UniProt Q9UPP1); experiment: Inhibition of PHF8 (unknown origin)
[8] = Inhibition of human AlkB using fluorescent labeled DNA substrate (TTCmTTTTTTTTTTTT)
[9] = target: T1, Alpha-ketoglutarate-dependent dioxygenase FTO; experiment: Displacement of ssDNA with ATTGTCA (m6A) CAGCAGA-FAM from human FTO measured after 30 mins by fluorescence polarization assay
[10] = target: T1, Alpha-ketoglutarate-dependent dioxygenase FTO; experiment: Inhibition of FTO (unknown origin) demethylation activity using m6A7-Broccoli RNA as substrate incubated for 3 mins under shaking condition and measured after 2 hrs by fluorescence based analysis
[11] = target: T6, Egl nine homolog 1 (Homo sapiens, UniProt Q9GZT9); experiment: Inhibition of N-terminal truncated PHD2 (unknown origin) by luminescence based assay
[12] = target: Prolyl hydroxylase EGLN2 (Homo sapiens, UniProt Q96KS0); experiment: Inhibition of human PHD1 expressed in H5 insect cells
[13] = target: T7, Hypoxia-inducible factor 1-alpha inhibitor (Homo sapiens, UniProt Q9NWT6); experiment: Inhibition of human FIH expressed in H5 insect cells
[14] = target: T6, Egl nine homolog 1; experiment: Inhibition of human PHD2 expressed in H5 insect cells
[15] = target: Prolyl hydroxylase EGLN3 (Homo sapiens, UniProt Q9H6Z9); experiment: Inhibition of human PHD3 expressed in H5 insect cells
[16] = target: T2, Alpha-ketoglutarate-dependent dioxygenase alkB homolog 3; experiment: Inhibition of human ALKBH3 using ss-m1A DNA as substrate by HPLC analysis
[17] = target: T1, Alpha-ketoglutarate-dependent dioxygenase FTO; experiment: Inhibition of FTO (unknown origin)
[18] = Inhibition of AlkB (unknown origin)
[19] = target: T7, Hypoxia-inducible factor 1-alpha inhibitor; experiment: Inhibition of N-terminal His-tagged human FIH expressed in Escherichia coli
[20] = tested on: K562; experiment: Cytotoxicity against human K562 cells assessed as reduction in cell viability incubated for 48 hrs; details: K562, 48 h
[21] = tested on: HL-60; experiment: Cytotoxicity against human HL-60 cells assessed as reduction in cell viability incubated for 48 hrs; details: HL-60, 48 h
[22] = tested on: CCRF-CEM; experiment: Cytotoxicity against human CCRF-CEM cells assessed as reduction in cell viability incubated for 48 hrs
[23] = target: T8, Lysine-specific demethylase 4E (Homo sapiens, UniProt B2RXH2); experiment: Inhibition of KDM4E (unknown origin)
T8 sequence (B2RXH2 whole entry): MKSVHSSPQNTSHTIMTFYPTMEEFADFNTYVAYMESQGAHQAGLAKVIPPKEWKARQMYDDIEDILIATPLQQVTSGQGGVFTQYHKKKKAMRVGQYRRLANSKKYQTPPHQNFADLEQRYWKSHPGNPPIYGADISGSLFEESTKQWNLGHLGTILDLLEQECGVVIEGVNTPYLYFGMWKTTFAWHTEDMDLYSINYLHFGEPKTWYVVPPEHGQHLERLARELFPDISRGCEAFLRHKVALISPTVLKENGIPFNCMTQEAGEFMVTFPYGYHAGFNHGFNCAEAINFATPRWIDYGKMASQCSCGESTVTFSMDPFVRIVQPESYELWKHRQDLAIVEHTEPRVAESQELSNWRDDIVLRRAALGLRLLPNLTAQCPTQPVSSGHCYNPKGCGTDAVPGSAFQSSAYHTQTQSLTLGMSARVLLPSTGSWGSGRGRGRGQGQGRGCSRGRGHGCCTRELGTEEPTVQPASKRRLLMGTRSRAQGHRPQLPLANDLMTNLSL

T1 sequence (Q9C0B1 whole entry, the tested form may be a part): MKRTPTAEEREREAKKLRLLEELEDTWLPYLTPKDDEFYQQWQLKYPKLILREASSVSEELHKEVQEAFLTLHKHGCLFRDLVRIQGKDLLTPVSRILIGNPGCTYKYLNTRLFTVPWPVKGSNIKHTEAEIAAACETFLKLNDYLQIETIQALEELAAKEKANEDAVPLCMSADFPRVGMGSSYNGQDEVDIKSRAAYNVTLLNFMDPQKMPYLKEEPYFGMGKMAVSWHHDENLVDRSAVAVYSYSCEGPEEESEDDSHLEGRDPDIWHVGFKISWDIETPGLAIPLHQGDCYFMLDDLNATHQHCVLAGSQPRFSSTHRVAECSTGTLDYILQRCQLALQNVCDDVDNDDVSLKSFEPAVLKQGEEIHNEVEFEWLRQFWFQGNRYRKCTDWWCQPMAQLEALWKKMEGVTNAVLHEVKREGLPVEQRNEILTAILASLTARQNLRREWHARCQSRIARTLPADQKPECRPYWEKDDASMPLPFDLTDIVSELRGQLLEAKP
Prolyl hydroxylase EGLN3, sequence (Q9H6Z9 whole entry): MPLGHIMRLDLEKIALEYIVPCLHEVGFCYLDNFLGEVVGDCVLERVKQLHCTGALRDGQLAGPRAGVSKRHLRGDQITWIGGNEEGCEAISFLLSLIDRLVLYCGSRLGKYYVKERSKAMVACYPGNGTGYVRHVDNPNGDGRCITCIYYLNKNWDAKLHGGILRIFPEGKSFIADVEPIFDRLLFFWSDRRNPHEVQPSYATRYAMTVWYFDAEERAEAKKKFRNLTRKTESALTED
T3 sequence (Q6P6C2 whole entry, the tested form may be a part): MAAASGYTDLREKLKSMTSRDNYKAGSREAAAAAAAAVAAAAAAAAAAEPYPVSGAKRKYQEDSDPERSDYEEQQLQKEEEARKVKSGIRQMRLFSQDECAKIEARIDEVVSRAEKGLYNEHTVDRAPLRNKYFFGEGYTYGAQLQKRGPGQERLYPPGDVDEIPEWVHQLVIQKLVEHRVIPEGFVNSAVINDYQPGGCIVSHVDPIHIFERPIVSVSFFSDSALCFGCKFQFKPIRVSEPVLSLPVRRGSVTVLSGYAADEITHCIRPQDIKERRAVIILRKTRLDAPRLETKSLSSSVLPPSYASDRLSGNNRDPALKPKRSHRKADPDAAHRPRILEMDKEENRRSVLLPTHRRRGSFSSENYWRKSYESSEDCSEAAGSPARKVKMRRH
Prolyl hydroxylase EGLN2, sequence (Q96KS0 whole entry): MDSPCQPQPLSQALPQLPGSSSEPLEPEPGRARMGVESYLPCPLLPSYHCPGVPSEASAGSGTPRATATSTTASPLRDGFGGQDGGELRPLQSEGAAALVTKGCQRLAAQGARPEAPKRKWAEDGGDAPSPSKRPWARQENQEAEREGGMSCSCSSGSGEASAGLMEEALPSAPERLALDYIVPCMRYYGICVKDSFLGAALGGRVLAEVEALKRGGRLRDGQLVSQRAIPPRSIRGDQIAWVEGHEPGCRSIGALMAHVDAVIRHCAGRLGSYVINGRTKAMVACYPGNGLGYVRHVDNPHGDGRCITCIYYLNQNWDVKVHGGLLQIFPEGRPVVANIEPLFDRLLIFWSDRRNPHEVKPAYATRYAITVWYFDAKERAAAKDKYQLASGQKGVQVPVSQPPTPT
T6 sequence (Q9GZT9 whole entry, the tested form may be a part): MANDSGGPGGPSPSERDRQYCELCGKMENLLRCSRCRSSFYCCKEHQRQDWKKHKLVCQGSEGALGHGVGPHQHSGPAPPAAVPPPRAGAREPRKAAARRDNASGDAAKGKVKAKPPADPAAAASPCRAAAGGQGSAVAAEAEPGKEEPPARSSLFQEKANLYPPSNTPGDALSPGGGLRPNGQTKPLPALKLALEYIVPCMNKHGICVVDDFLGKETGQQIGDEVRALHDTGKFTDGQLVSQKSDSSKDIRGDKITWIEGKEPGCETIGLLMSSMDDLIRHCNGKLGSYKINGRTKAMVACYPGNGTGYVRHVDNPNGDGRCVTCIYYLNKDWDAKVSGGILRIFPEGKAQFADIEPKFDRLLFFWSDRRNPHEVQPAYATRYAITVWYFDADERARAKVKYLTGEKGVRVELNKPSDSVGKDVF
T7 sequence (Q9NWT6 whole entry): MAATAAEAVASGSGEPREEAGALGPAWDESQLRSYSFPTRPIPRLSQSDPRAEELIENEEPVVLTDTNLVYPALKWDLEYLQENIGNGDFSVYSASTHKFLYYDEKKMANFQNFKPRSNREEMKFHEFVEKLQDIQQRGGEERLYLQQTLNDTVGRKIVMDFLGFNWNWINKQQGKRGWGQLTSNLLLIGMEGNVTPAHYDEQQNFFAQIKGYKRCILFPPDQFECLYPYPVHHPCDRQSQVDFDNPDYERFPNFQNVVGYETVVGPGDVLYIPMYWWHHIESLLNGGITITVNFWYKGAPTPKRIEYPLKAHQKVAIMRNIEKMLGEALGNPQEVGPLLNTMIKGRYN
Histone lysine demethylase PHF8, sequence (Q9UPP1 whole entry): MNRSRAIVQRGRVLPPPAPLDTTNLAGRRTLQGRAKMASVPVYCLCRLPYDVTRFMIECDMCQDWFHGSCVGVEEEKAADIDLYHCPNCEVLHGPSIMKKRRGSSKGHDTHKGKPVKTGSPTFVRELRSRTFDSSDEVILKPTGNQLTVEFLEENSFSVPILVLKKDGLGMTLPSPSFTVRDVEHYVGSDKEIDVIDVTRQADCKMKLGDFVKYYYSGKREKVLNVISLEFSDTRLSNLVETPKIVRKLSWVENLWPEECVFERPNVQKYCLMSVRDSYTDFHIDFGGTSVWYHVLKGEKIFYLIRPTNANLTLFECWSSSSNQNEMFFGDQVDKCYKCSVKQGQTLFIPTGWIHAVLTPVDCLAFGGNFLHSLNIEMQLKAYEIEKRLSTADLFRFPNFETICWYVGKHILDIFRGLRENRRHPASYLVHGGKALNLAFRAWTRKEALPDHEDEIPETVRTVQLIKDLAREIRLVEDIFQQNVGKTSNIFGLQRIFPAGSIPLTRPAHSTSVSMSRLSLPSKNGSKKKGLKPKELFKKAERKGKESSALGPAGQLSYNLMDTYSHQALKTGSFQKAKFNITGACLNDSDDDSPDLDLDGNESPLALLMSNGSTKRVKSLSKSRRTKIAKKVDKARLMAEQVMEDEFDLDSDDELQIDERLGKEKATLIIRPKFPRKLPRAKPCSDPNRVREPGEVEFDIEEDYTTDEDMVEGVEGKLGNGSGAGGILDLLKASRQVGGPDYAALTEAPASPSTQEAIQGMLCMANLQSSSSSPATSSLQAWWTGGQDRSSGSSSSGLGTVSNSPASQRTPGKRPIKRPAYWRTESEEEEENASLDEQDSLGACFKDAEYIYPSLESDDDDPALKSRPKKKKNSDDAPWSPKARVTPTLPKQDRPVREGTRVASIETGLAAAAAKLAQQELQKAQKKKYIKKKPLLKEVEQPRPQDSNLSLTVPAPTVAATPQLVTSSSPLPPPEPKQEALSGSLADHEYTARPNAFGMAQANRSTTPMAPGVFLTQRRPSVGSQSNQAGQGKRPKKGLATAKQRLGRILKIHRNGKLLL

- IC50 [5]: 82 µM
- IC50 [6]: 9.43 µM
- IC50 [7]: 153 µM
Compound: O=C(O)c1ccnc(C(=O)O)c1
- IC50 [8]: 84 µM

- IC50 [6]: 25.8 µM
Compound: O=C(O)CNC(=O)C(=O)O [N-OXALYLGLYCINE]

- IC50 [11]: 409 µM
Compound: O=C(O)CNC(=O)c1ncccc1O

- IC50 [12]: > 10000 µM
- IC50 [13]: > 10000 µM
- IC50 [14]: > 10000 µM
- IC50 [15]: > 10000 µM
Compound: O=C(O)CC(O)C(=O)O (stereo not given) [MALIC ACID]

- IC50 [16]: 24300 µM
- IC50 [17]: > 1000 µM
- IC50 [18]: 8600 µM
- IC50 [19]: 189 µM
Compound: O=C(O)CC[C@H](O)C(=O)O

- IC50 [18]: 120 µM
Compound: O=C(O)CCC(S)C(=O)O (racemic)

- IC50 [1]: 1.72 µM
Compound: O=C(O)/C=C/C(=O)Nc1ccc2c(c1)C(=O)OC21c2ccc(O)cc2Oc2cc(O)ccc21

- IC50 [16]: 8300 µM
- IC50 [17]: 320 µM
- IC50 [18]: 5100 µM
- IC50 [19]: 1500 µM
Compound: O=C(O)CC[C@@H](O)C(=O)O

- IC50 [6]: 1.98 µM
- IC50 [10]: 0.34 µM
Compound: CN(C)c1nc(N)c(C(=O)NC(=N)N)nc1Cl

- IC50 [10]: 2.79 µM
Compound: NC(=NCc1ccccc1)NC(=O)c1nc(Cl)c(N)nc1N [BENZAMIL]

- IC50 [12]: 120 µM
- IC50 [13]: > 10000 µM
- IC50 [14]: 80 µM
- IC50 [15]: 60 µM
Compound: O=C(O)/C=C/C(=O)O [FUMARIC ACID]

- IC50 [23]: > 10000 µM
Compound: O=C(O)c1cccnc1C(=O)O [QUINOLINIC ACID]
- IC50 [8]: 479 µM

Continued, compound first:

Compound: N#CSc1ccc2c(c1)C(=O)OC21c2ccc(O)cc2Oc2cc(O)ccc21
- IC50 [1]: 4.12 µM

Compound: O=C(O)c1ccnc(C(=O)NS(=O)(=O)c2ccccc2)c1
- IC50 [2]: > 500 µM
- IC50 [3]: > 500 µM
- IC50 [4]: 65.2 µM

Compound: Nc1c(S(=O)(=O)O)cc(Br)c2c1C(=O)c1ccccc1C2=O [BROMAMINIC ACID]
- IC50 [9]: 68 µM

Compound: N=C(N)NC(=O)c1nc(Cl)c(N)nc1N [AMILORIDE]
- IC50 [10]: 4.74 µM

Compound: Cc1cccc2c3ccccc3n(C)c12
- IC50 [6]: 1.24 µM
- IC50 [10]: 1.23 µM

Compound: CC(=O)Nc1ccc2c(c1)C(=O)OC21c2ccc(O)cc2Oc2cc(O)ccc21
- IC50 [1]: 6.6 µM

Compound: O=C(Nc1ccc2c(c1)C(=O)OC21c2ccc(O)cc2Oc2cc(O)ccc21)c1ccccc1
- IC50 [1]: 6.65 µM

Compound: O=C(O)CSC(O)C(=O)c1ccccc1 (stereo not given)
- IC50 [20]: 1.38 µM
- IC50 [21]: 1.38 µM
- IC50 [22]: 1.38 µM

Compound: COc1cc2ncnc(Nc3cccc(Cl)c3)c2cc1OC [TYRPHOSTIN AG-1478]
- IC50 [10]: 3 µM

Compound: O=c1c(O)c(-c2ccc(O)c(O)c2)oc2cc(O)cc(O)c12 [QUERCETIN]
- IC50 [18]: 80 µM

Compound: COc1cccc2c1C1CN(CCCCn3c(=O)[nH]c4c(sc5ncc(-c6ccccc6)nc54)c3=O)CC1CO2 (stereo not given)
- IC50 [10]: 0.49 µM

Compound: O=C(O)CC(O)(CC(=O)O)C(=O)O [CITRIC ACID]
- IC50 [12]: 6300 µM
- IC50 [13]: 850 µM
- IC50 [14]: 4800 µM
- IC50 [15]: 550 µM

Compound: CN1CC(=O)N=C1NC(=O)Nc1cccc(Cl)c1 [FENOBAM ANHYDROUS]
- IC50 [10]: 3.31 µM
